Consider 9 compounds from patent publication US7767822B2, “Water-soluble tetrazolium salts” (Bayer Healthcare LLC, priority 2005, dated 2010).

Like-named read-outs stand apart in the source and are kept apart here.

Data set [1] can be described thus: Solubility of tetrazolium salts in 0.2M phosphate buffer. In kind it is physicochemical.
Data set [2] in a line: Absorption spectra of formazans formed from the tetrazolium salts. The format is physicochemical. Conditions: 100 μM tetrazolium salt in 100 mM potassium phosphate buffer, 5-fold excess ascorbate; compared with HTC-045. Here is the method: The compounds prepared and tested for their solubility had somewhat different spectral properties. The absorption spectra of each formazan formed from the tetrazolium salt and tested for solubility in Table 1 was measured with a Hewlett Packard Model 8453 diode-array UV-visible spectrophotometer. Solutions of 100 μM of a tetrazolium salt were prepared in 100 mM potassium phosphate buffer. The formazan spectra were measured after the addition of 5-fold excess ascorbate acid salt to convert the tet salts to their formazans.

Setting [3] is: 0.2M phosphate buffer, pH ~7.5, room temperature.

“5-[4-(3-trimethylammonium) propoxy-3-methoxy-phenyl]-3-[2-(3-trimethylammonium) propoxy-phenyl]-2-(6-ethoxy-benzothiazol-2-yl)-2H-tetrazolium tribromide salt [Example 9]”: the “Solubilility” value in data set [1] (setting [3]) was determined as 260 mM.
For the compound `COc1cc(-c2nn(-c3nc(C(F)F)c(Cl)s3)[n+](-c3ccccc3OCCC[N+](C)(C)C)n2)ccc1OCCC[N+](C)(C)C.O=N[O-].[Br-].[Br-]` [Example 6, 5-[4-(3-trimethylammonium)propoxy-3-methoxy-phenyl]-3-[2-(3-trimethylammonium)propoxy-phenyl]-2-(5-chloro-4-difluoromethyl-thiazol-2-yl)-2H-tetrazolium dibromo nitrite salt], the “Solubilility” value in data set [1] (setting [3]) stood at 181 mM. Also, the “shape of formazan absorbance versus wavelength curve” value in data set [2] is “relatively flat”.
For the compound `CCOc1ccc2nc(-n3nc(-c4ccc(OCCC[N+](C)(C)C)c(OC)c4)n[n+]3-c3ccccc3OCCC[N+](C)(C)C)sc2c1.O=N[O-].[Br-].[Br-]` [Example 7], the “Solubilility” value in data set [1] turned out to be 169 mM. Further, the “shape of formazan absorbance versus wavelength curve” value in data set [2] is listed as “relatively flat”.
As to “5-Benzo[1,3 dioxol-5-yl]-3-[2-(3-trimethylammonium) propoxy-phenyl]-2-(6-methoxynapthylthiazol-2-yl)-2 H-tetrazolium bromo nitrite salt [Example 5]”, in data set [2], the “shape of formazan absorbance versus wavelength curve” value is recorded as “rising absorbance verses wavelength curve”.
Regarding “5-Benzo[1,3 dioxol-5-yl]-3-[2-(3-trimethylammonium) propoxy-phenyl]-2-(5-chloro-4-difluoromethyl-thiazol-2-yl)-2H-tetrazolium bromo nitrite salt [Example 1]”, in data set [2], the “shape of formazan absorbance versus wavelength curve” value is “relatively flat”.
For the compound “5-Benzo[1,3 dioxol-5-yl]-3-[2-(3-trimethylammonium) propoxy-phenyl]-2(benzothiazol-2-yl)-2 H-tetrazolium bromo nitrite salt [Example 4]”, the “shape of formazan absorbance versus wavelength curve” value in data set [2] is recorded as “relatively flat”.
“5-Benzo[1,3 dioxol-5-yl]-3-[2-(3-trimethylammonium) propoxy-phenyl]-2-(5-chloro-4-difluoromethyl-thiazol-2-yl)-2 H-tetrazolium bromo tetrafluoroborate salt [Example 2]”: the “Solubilility” value in data set [1] came to 5 mM. Further, the “shape of formazan absorbance versus wavelength curve” value in data set [2] is on record as “relatively flat”.
Taken in the same sequence, the figures for `Br.CN(C)CCCOc1ccccc1-[n+]1nc(-c2ccc3c(c2)OCO3)nn1-c1nc(C(F)F)c(Cl)s1.O=N[O-]` [Example 3, 5-Benzo[1,3 dioxol-5-yl]-3-[2-(3-dimethylhydrogenammoniun)propoxy-phenyl]-2-(5-chloro-4-difluoromethyl-thiazol-2-yl)-2 H-tetrazolium bromo nitrite salt] were 9 mM and “relatively flat”.
As to “5-[4-(3-trimethylammonium)propoxy-3-methoxy-phenyl]-3-[2-(3-trimethylammonium) propoxy-phenyl]-2-(6-bromo-benzothiazol-2-yl)-2H-tetrazolium dibromo nitrite salt [Example 8]”, in data set [2], the “shape of formazan absorbance versus wavelength curve” value is recorded as “relatively flat”.
